The text below walks through data of patent US12312293B2, “Branched tail lipid compounds and compositions for intracellular delivery of therapeutic agents” (ModernaTX, Inc., priority 2019, dated 2025).

Data set [1] can be described thus: Characteristics of lipid nanoparticles (size, PDI, encapsulation efficiency). Conditions: LNP with DSPC, cholesterol, PEG-1 and the compound; for % EE: encapsulation efficiency; for PDI: polydispersity index. The format is physicochemical. From the text:
Lipid nanoparticles (e.g., empty LNPs or loaded LNPs) may be characterized by a variety of methods. For example, microscopy (e.g., transmission electron microscopy or scanning electron microscopy) may be used to examine the morphology and size distribution of a nanoparticle composition. Dynamic light scattering or potentiometry (e.g., potentiometric titrations) may be used to measure zeta potentials. Dynamic light scattering may also be utilized to determine particle sizes. Instruments such as the Zetasizer Nano ZS (Malvern Instruments Ltd, Malvern, Worcestershire, UK) may also be used to measure multiple characteristics of a nanoparticle composition, such as particle size, polydispersity index, and zeta potential.
The efficiency of encapsulation of a therapeutic and/or prophylactic describes the amount of therapeutic and/or prophylactic that is encapsulated or otherwise associated with a lipid nanoparticle (e.g., an empty LNP or a loaded LNP) after preparation, relative to the initial amount provided. The encapsulation efficiency is desirably high (e.g., close to 100%). The encapsulation efficiency may be measured, for example, by comparing the amount of therapeutic and/or prophylactic in a solution containing the lipid nanoparticle (e.g., an empty LNP or a loaded LNP) before and after breaking up the lipid nanoparticle (e.g., an empty LNP or a loaded LNP) with one or more organic solvents or detergents. Fluorescence may be used to measure the amount of free therapeutic and/or prophylactic (e.g., RNA) in a solution. For the lipid nanoparticles (e.g., empty LNPs or loaded LNPs) described herein, the encapsulation efficiency of a therapeutic and/or prophylactic may be at least 50%, for example 50%, 55%, 60%, 65%, 70%, 75%, 80%, 85%, 90%, 91%, 92%, 93%, 94%, 95%, 96%, 97%, 98%, 99%, or 100%. In some embodiments, the encapsulation efficiency may be at least 80%. In certain embodiments, the encapsulation efficiency may be at least 90%. In some embodiments, the encapsulation efficiency of the therapeutic and/or prophylactic agent is between 80% and 100%.
Lipid nanoparticles (e.g., empty LNPs or loaded LNPs) including DSPC as a phospholipid, cholesterol as a structural lipid, PEG-1 as a PEG lipid, and a compound according to Formula (1-1), (2-1), (I-a), (A), (B), (A-1), (A-2), (A-3), (IA), (IB), (B-1), (B-2), (B-3), (A-a), (A-a1), (A-a2), (A-a3), (A-b), (A-b1), (A-b2), (A-b3), (A-c), or (B-c) were prepared. Tables 2a and 2b summarize the characteristics of the formulations.

Data set [2] is described as follows: Residual lipid levels in the liver of mice after LNP administration. Conditions: calculation assumes a 25 g mouse with a 1.5 g liver. The format is in vivo.

Consider `CCCCCC(CCCCC)CCOC(=O)CCCCCCCN(CCCCCCCC(=O)OCCC(CCC)CCC)CCCNc1c(NC)c(=O)c1=O` [Compound 51, 3-Pentyloctyl 8-((3-((2-(methylamino)-3,4-dioxocyclobut-1-en-1-yl)amino)propyl)(8-oxo-8-((3-propylhexyl)oxy)octyl)amino)octanoate], for which, in data set [1], the “Size (nm)” value is 58.3 nm, the “% EE” value worked out at 95.9% and the PDI stood at 0.12.

Turning to `CCCCC(CCCC)CCOC(=O)CCCCCCCN(CCCCCCCC(=O)OCCC(CCC)CCC)CCCNc1c(NC)c(=O)c1=O` [Compound 52, 3-Butylheptyl 8-((3-((2-(methylamino)-3,4-dioxocyclobut-1-en-1-yl)amino)propyl)(8-oxo-8-((3-propylhexyl)oxy)octyl)amino)octanoate], in data set [1], the “Size (nm)” value worked out at 70.5 nm, the “% EE” value came to 84.9% and the PDI is recorded as 0.16.

`CCCC(CCC)CCOC(=O)CCCCCCCN(CCCCCCCC(=O)OCCC(CCC)CCC)CCCNc1c(NC)c(=O)c1=O` [Compound 53, Bis(3-propylhexyl) 8,8′-((3-((2-(methylamino)-3,4-dioxocyclobut-1-en-1-yl)amino)propyl)azanediyl)dioctanoate]: in data set [1], the “Size (nm)” value is listed as 106.7 nm, the “% EE” value turned out to be 84.2% and the PDI is on record as 0.28.

For `CCCCCC(CCCCC)CCOC(=O)CCCCCCCN(CCCCCCCC(=O)OCCC(CCCC)CCCC)CCCNc1c(NC)c(=O)c1=O` [Compound 54, 3-Butylheptyl 8-((3-((2-(methylamino)-3,4-dioxocyclobut-1-en-1-yl)amino)propyl)(8-oxo-8-((3-pentyloctyl)oxy)octyl)amino)octanoate], in data set [1], the “Size (nm)” value is reported as 64.3 nm, the “% EE” value was 98.3% and the PDI is on record as 0.10.

With `CCCCC(CCCC)CCOC(=O)CCCCCCCN(CCCCCCCC(=O)OCCC(CCCC)CCCC)CCCNc1c(NC)c(=O)c1=O` [Compound 55, Bis(3-butylheptyl) 8,8′-((3-((2-(methylamino)-3,4-dioxocyclobut-1-en-1-yl)amino)propyl)azanediyl)dioctanoate], in data set [1], the “Size (nm)” value is listed as 77.0 nm, the “% EE” value is listed as 88.9% and the PDI is reported as 0.25.

On to `CCCCCC(CCCCC)CCOC(=O)CCCCCCCN(CCCCCCCC(=O)OC(CCCCC)CCCCC)CCCNc1c(NC)c(=O)c1=O` [Compound 57, 3-Pentyloctyl 8-((3-((2-(methylamino)-3,4-dioxocyclobut-1-en-1-yl)amino)propyl)(8-oxo-8-(undecan-6-yloxy)octyl)amino)octanoate], for which, in data set [1], the “Size (nm)” value worked out at 69.4 nm, the “% EE” value is given as 90.1% and the PDI turned out to be 0.12.

In the case of `CCCCCC(CCCCC)CCOC(=O)CCCCCCCN(CCCCCCCC(=O)OC(CCCC)CCCC)CCCNc1c(NC)c(=O)c1=O` [Compound 58, Nonan-5-yl 8-((3-((2-(methylamino)-3,4-dioxocyclobut-1-en-1-yl)amino)propyl)(8-oxo-8-((3-pentyloctyl)oxy)octyl)amino)octanoate], in data set [1], the “Size (nm)” value was 63.9 nm, the “% EE” value amounted to 90.1% and the PDI is on record as 0.12.

With `CCCCCCC(CCCCCC)OC(=O)CCCCCCCN(CCCCCCCC(=O)OCCC(CCCC)CCCC)CCCNc1c(NC)c(=O)c1=O` [Compound 60, 3-Butylheptyl 8-((3-((2-(methylamino)-3,4-dioxocyclobut-1-en-1-yl)amino)propyl)(8-oxo-8-(tridecan-7-yloxy)octyl)amino)octanoate], in data set [1], the “Size (nm)” value worked out at 60.4 nm, the “% EE” value amounted to 98.8% and the PDI was determined as 0.14.

As to `CCCCCC(CCCCC)OC(=O)CCCCCCCN(CCCCCCCC(=O)OCCC(CCCC)CCCC)CCCNc1c(NC)c(=O)c1=O` [Compound 61, 3-Butylheptyl 8-((3-((2-(methylamino)-3,4-dioxocyclobut-1-en-1-yl)amino)propyl)(8-oxo-8-(undecan-6-yloxy)octyl)amino)octanoate], in data set [1], the “Size (nm)” value is 63.5 nm, the “% EE” value stood at 98.1% and the PDI was 0.09.

With `CCCCC(CCCC)CCOC(=O)CCCCCCCN(CCCCCCCC(=O)OC(CCCC)CCCC)CCCNc1c(NC)c(=O)c1=O` [Compound 62, 3-Butylheptyl 8-((3-((2-(methylamino)-3,4-dioxocyclobut-1-en-1-yl)amino)propyl)(8-(nonan-5-yloxy)-8-oxooctyl)amino)octanoate], in data set [1], the “Size (nm)” value turned out to be 91.0 nm, the “% EE” value worked out at 83.0% and the PDI is 0.17.

As for `CCCCCCCC(CCCCCCC)OC(=O)CCCCCCCN(CCCCCCCC(=O)OCCC(CCC)CCC)CCCNc1c(NC)c(=O)c1=O` [Compound 63, Pentadecan-8-yl 8-((3-((2-(methylamino)-3,4-dioxocyclobut-1-en-1-yl)amino)propyl)(8-oxo-8-((3-propylhexyl)oxy)octyl)amino)octanoate], in data set [1], the “Size (nm)” value was determined as 56.2 nm, the “% EE” value turned out to be 98.1% and the PDI came to 0.15. Besides, in data set [2], the “Approx. Percent Total Dose of Parent Lipid Remaining at 24 h” value was 9 ± 3%.

On to `CCCCCCC(CCCCCC)OC(=O)CCCCCCCN(CCCCCCCC(=O)OCCC(CCC)CCC)CCCNc1c(NC)c(=O)c1=O` [Compound 64, 3-Propylhexyl 8-((3-((2-(methylamino)-3,4-dioxocyclobut-1-en-1-yl)amino)propyl)(8-oxo-8-(tridecan-7-yloxy)octyl)amino)octanoate], for which, in data set [1], the “Size (nm)” value was found to be 73.6 nm, the “% EE” value worked out at 89.2% and the PDI is reported as 0.13.

Regarding `CCCCCC(CCCCC)OC(=O)CCCCCCCN(CCCCCCCC(=O)OCCC(CCC)CCC)CCCNc1c(NC)c(=O)c1=O` [Compound 65, 3-Propylhexyl 8-((3-((2-(methylamino)-3,4-dioxocyclobut-1-en-1-yl)amino)propyl)(8-oxo-8-(undecan-6-yloxy)octyl)amino)octanoate], in data set [1], the “Size (nm)” value is on record as 83.1 nm, the “% EE” value came to 88.6% and the PDI stood at 0.17.

For the compound `CCCCC(CCCC)OC(=O)CCCCCCCN(CCCCCCCC(=O)OCCC(CCC)CCC)CCCNc1c(NC)c(=O)c1=O` [Compound 66, Nonan-5-yl 8-((3-((2-(methylamino)-3,4-dioxocyclobut-1-en-1-yl)amino)propyl)(8-oxo-8-((3-propylhexyl)oxy)octyl)amino)octanoate], in data set [1], the “Size (nm)” value is 145.3 nm, the “% EE” value worked out at 81.7% and the PDI is recorded as 0.25.
